For one molecule, inhibition results are on record in US9695192B2, “Fused heterocyclic compounds as ion channel modulators” (GILEAD SCIENCES, INC., priority 2011, dated 2017).

Assay type in all cases: cell-based
Assay [1] concerns the target T1, human Nav1.1 (Homo sapiens, UniProt P35498).
T1 construct: expressed in transfected cells; host or cells: HEK293, transient transfection (Qiagen Superfect), α1:β1:β2 at 10:1:1
Briefly: Nav1.1 use-dependent block, whole-cell voltage clamp, 10 Hz pulse train. To be noted: Chantest conditions, read-out: NAV1.1 UDB-10 HZ % Inhibition.

Assay [2] deals with T2, hNav1.2 sodium channel (Homo sapiens, UniProt Q99250).
T2 construct: expressed in transfected cells
T2 sequence (Q99250 whole entry): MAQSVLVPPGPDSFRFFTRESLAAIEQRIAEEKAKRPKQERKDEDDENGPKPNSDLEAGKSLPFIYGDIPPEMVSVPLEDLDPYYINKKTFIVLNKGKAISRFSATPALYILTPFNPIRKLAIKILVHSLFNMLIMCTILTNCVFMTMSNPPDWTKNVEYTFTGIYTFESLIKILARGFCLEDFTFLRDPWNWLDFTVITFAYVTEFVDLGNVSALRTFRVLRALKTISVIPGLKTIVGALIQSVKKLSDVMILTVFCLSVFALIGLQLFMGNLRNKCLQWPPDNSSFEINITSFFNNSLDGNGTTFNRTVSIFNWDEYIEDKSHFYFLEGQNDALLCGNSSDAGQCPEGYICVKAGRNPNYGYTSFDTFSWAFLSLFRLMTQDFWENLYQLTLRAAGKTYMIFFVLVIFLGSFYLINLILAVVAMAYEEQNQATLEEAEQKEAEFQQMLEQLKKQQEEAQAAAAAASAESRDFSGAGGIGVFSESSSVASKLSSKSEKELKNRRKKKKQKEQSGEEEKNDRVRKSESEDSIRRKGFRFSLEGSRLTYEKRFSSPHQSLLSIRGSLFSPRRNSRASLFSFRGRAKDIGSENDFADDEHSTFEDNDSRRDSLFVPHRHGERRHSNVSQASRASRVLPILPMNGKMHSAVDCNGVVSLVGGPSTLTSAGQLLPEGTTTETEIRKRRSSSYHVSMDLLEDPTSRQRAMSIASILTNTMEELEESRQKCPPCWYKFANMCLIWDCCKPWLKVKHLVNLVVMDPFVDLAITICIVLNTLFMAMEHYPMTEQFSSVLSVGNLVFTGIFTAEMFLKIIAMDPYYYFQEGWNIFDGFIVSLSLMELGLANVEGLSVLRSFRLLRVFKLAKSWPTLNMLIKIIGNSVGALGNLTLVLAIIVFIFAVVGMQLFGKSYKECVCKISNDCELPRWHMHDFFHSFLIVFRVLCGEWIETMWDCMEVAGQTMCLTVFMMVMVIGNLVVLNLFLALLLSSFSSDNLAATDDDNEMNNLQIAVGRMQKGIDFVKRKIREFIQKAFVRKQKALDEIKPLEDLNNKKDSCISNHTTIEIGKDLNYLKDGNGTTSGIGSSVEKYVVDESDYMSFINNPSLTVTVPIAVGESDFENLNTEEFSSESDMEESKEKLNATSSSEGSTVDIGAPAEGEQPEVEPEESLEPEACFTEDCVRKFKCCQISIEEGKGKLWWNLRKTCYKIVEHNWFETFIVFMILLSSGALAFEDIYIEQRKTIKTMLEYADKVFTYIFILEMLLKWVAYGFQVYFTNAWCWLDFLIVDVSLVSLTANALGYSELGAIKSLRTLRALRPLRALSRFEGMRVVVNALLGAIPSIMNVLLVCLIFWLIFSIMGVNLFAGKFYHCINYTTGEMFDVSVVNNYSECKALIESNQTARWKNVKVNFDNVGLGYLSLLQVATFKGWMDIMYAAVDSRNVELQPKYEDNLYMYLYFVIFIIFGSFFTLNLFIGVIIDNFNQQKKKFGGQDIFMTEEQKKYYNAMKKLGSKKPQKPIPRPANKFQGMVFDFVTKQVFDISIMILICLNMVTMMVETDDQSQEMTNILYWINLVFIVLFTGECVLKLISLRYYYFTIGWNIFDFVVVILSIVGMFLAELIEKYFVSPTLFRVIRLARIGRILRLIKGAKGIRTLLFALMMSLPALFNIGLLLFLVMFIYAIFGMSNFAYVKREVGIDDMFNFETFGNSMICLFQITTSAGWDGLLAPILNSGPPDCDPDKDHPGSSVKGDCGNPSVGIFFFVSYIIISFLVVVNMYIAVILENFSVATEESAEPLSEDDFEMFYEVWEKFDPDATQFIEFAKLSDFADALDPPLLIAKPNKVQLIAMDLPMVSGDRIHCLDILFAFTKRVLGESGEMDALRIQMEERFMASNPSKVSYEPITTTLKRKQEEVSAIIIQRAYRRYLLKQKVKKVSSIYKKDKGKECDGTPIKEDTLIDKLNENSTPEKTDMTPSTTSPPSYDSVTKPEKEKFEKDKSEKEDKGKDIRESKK
Description: Nav1.2 use-dependent block, whole-cell voltage clamp, 10 Hz pulse train. The following applies: Chantest conditions, read-out: NAV1.2 UDB-10 HZ % Inhibition. From the text: Wild-type (WT) cDNA stably transfected in Chinese hamster ovary (CHO) cells is used to record INa. Unless otherwise noted, all reagents are purchased from Sigma-Aldrich (St Louis, Mo., U.S.A.).
Whole-cell voltage-clamp recordings are used to measure the biophysical properties of WT. Briefly, the pipette solution consists of (in mM) 110 CsF, 10 NaF, 20 CsCl, 2 EGTA, 10 HEPES, with a pH of 7.35 and osmolarity of 300 mOsmol/kg. The bath (control) solution contains in (mM): 145 NaCl, 4 KCl, 1.8 CaCl2, 1 MgCl2, 10 dextrose, 10 HEPES, with a pH of 7.35 and osmolarity of 310 mOsmol/kg. Cells are allowed to stabilize for 10 min after establishment of the whole-cell configuration before current is measured. Series resistance is compensated 90% to assure that the command potential is reached within microseconds with a voltage error<2 mV. Leak currents are subtracted by using an online P/4 procedure and all currents are low-pass Bessel filtered at 5 kHz and digitized at 50 kHz.
Tonic block of peak current is measured using a step to −10 mV (20 ms) from a holding potential of −120 mV (0.2 Hz). Use-dependent block of peak current is measured during pulse number 300 of a pulse train (−10 mV, 5 ms, 300 pulses, 10 Hz or 25 Hz) from a holding potential of −120 mV. Currents are then normalized to the peak current recorded in response to the first pulse in each frequency train. For tonic block studies, peak current is evaluated in response to a 20 ms depolarization to −10 mV (0.2 Hz). Two sequential pulse train stimulations are averaged to obtain mean current traces for each recording condition, which are then used for offline subtraction and analysis.
A stock solution of 10 mM compound of Formula I is prepared in 0.1 M HCl or DMSO. A fresh dilution of the compound of Formula I in the bath solution is prepared every experimental day and the pH is readjusted to 7.35 as necessary. The final DMSO concentration was kept at 0.1% in all solutions. Direct application of the perfusion solution to the clamped cell is achieved using the Perfusion Pencil system (Automate, Berkeley, Calif.). Direct cell perfusion is driven by gravity at a flow rate of 350 μL/min using a 250 micron tip. This system sequesters the clamped cell within a perfusion stream and enables complete solution exchange within 1 second. The clamped cell is perfused continuously starting immediately after establishing the whole-cell configuration. Control currents are measured during control solution perfusion.
Solutions are perfused for three minutes prior to current recordings to allow equilibrium (tonic) drug block. Tonic block of peak currents is measured from this steady-state condition. Three sequential current traces are averaged to obtain a mean current for each recording. The mean current traces are utilized for offline analysis.

For assay [3], the target named is wild-type human cardiac sodium channel, hNav1.5 (Homo sapiens, UniProt Q14524). Briefly: Late INa screening assay (QPatch whole cell patch clamp, tefluthrin-enhanced late sodium current). The following applies: HEK293 hNav1.5, late INa activated with 10 μM Tefluthrin. The method, boiled down: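 Automated whole-cell patch clamp of HEK293 cells stably expressing hNav1.5 (no β subunits), 23-25 °C. Late current enhanced by 10 μM tefluthrin, 250 ms steps to −20 mV from −120 mV at 0.1 Hz, measured 225-250 ms. Compounds typically 1 μM, three additions over 7-8 min; % block normalised to 0 Na baseline.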
Sequence of wild-type human cardiac sodium channel, hNav1.5 (Q14524 whole entry): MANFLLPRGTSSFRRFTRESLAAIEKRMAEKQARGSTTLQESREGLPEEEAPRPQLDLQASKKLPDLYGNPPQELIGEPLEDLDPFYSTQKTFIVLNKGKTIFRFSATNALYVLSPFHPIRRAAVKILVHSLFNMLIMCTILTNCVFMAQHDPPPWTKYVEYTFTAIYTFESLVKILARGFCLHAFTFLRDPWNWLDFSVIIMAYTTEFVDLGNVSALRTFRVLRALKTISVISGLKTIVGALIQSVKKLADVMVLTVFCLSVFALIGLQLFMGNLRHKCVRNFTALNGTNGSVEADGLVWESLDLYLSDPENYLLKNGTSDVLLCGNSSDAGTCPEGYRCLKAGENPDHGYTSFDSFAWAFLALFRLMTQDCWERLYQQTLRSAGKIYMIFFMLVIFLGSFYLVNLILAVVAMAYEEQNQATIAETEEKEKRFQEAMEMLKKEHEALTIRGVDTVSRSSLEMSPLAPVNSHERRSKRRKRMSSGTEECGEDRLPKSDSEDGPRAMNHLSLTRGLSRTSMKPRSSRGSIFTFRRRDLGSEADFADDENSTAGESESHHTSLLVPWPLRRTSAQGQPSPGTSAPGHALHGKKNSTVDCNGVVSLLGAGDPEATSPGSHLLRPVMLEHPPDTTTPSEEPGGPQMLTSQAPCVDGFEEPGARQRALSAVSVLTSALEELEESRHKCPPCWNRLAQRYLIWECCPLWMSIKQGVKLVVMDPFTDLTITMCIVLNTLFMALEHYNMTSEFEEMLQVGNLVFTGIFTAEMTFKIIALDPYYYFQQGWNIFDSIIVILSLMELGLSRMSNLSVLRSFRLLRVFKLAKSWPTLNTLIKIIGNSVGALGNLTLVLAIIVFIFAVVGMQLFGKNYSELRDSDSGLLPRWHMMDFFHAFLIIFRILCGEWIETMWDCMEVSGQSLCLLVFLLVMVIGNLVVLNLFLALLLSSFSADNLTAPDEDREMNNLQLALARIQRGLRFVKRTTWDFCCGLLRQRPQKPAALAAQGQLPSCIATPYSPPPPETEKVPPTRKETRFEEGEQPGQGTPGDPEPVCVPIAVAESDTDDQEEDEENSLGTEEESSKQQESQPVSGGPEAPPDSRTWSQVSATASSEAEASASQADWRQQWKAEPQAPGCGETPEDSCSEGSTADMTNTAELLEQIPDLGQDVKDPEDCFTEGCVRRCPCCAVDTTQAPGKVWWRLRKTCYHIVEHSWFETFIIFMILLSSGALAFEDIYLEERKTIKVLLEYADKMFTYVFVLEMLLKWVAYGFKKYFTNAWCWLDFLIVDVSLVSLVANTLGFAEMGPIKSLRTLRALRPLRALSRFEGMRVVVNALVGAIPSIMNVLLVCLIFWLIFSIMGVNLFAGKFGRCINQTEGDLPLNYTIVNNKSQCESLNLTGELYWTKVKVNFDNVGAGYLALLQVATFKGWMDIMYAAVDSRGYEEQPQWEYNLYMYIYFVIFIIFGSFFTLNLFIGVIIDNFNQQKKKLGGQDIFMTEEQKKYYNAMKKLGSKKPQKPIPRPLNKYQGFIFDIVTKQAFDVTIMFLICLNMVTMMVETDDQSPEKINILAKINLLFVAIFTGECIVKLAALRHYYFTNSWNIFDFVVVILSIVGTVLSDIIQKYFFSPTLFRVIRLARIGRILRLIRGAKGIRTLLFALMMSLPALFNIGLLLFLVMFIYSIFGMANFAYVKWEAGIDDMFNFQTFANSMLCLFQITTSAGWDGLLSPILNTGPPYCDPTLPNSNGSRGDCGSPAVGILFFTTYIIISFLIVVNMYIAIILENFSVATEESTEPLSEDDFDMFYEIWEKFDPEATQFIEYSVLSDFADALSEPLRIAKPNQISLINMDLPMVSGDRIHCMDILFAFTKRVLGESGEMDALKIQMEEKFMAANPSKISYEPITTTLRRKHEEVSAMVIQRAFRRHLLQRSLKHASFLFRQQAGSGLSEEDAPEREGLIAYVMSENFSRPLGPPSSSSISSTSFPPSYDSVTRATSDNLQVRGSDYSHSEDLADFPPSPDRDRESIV
Background: Patch clamp records ionic current or voltage across a cell membrane.

One may read the inhibition as the share of the control response that was lost under treatment. In the case of `FC(F)(F)c1ccc(-c2ccc3c(c2)C(NCc2ccccc2)=NCCO3)cc1` [II-2, N-benzyl-7-(4-(trifluoromethyl)phenyl)-2,3-dihydrobenzo[f][1,4]oxazepin-5-amine], the inhibition at 1 µM in assay [1] amounted to 9%; in assay [2], 24%; in assay [3], 41%.
